From publication PMC6257821, “Selective agonist of TRPML2 reveals direct role in chemokine release from innate immune cells” (eLife, 2018)

Legend:
Type in all cases: cell-based
[1] = molecular target: T1, hTRPML3 (Homo sapiens, UniProt Q8TDD5); assay: endolysosomal patch-clamp (LE/LY, HEK293), […], positive control; parameters: gene MCOLN3
T1 sequence (Q8TDD5 1-553): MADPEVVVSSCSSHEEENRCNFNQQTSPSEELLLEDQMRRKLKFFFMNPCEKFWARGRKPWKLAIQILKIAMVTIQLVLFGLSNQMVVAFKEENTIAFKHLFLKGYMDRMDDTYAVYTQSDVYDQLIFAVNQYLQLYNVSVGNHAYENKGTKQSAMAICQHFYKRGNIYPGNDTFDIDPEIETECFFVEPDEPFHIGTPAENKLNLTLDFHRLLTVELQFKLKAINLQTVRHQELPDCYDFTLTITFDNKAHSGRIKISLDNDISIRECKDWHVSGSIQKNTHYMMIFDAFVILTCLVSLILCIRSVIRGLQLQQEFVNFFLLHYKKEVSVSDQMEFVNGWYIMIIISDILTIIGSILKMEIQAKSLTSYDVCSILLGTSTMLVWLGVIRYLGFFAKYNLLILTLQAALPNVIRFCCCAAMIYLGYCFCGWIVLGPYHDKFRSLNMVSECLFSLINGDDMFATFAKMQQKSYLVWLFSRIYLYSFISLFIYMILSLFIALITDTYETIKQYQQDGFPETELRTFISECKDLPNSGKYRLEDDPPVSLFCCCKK

[2] = molecular target: T2, hTRPML1 (Homo sapiens, UniProt Q9GZU1); assay: as above
T2 construct: gene MCOLN1

[3] = molecular target: T3, hTRPML2 (Homo sapiens, UniProt Q8IZK6); assay: fura-2 calcium imaging dose-response and endolysosomal patch-clamp in HEK293 cells; G425A mutation abrogates effect
T3 construct: gene MCOLN2; hTRPML2-YFP
T3 sequence (Q8IZK6 1-566): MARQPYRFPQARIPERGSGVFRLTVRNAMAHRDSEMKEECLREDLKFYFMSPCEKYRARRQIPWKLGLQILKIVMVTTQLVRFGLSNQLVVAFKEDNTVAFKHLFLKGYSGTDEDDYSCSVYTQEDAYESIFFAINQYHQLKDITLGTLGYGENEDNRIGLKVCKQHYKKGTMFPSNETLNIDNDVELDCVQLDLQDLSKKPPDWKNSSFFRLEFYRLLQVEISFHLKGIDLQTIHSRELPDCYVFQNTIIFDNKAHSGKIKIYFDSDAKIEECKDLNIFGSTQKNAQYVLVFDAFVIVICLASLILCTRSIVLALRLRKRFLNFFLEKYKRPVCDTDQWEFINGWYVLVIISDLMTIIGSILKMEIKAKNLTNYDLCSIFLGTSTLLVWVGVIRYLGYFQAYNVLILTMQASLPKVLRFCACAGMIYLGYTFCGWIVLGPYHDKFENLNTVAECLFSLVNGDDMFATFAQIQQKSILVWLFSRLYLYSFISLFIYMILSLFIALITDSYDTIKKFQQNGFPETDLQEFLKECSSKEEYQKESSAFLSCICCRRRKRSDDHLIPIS

[4] = molecular target: T4, mTRPML2 (Mus musculus, UniProt Q8K595); assay: fura-2 calcium imaging dose-response in HEK293 cells; endolysosomal patch-clamp in LPS-stimulated mouse macrophages
T4 construct: gene Mcoln2
T4 sequence (Q8K595 1-566): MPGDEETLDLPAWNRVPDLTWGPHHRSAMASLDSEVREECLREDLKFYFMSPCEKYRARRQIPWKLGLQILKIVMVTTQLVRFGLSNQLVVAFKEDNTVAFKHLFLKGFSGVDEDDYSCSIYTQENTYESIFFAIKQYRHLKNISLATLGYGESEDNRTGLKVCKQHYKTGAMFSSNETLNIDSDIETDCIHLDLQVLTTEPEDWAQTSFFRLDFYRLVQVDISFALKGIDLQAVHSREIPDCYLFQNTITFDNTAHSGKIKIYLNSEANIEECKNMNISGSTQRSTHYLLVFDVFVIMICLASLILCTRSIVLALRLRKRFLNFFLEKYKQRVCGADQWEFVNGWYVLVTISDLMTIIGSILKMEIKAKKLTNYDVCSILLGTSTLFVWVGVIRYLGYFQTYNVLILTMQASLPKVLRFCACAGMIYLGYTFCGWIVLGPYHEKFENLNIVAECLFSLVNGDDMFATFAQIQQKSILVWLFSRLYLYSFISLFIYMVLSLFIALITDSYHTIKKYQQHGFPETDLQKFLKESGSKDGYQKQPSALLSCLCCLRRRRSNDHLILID

T2 sequence (Q9GZU1 whole entry): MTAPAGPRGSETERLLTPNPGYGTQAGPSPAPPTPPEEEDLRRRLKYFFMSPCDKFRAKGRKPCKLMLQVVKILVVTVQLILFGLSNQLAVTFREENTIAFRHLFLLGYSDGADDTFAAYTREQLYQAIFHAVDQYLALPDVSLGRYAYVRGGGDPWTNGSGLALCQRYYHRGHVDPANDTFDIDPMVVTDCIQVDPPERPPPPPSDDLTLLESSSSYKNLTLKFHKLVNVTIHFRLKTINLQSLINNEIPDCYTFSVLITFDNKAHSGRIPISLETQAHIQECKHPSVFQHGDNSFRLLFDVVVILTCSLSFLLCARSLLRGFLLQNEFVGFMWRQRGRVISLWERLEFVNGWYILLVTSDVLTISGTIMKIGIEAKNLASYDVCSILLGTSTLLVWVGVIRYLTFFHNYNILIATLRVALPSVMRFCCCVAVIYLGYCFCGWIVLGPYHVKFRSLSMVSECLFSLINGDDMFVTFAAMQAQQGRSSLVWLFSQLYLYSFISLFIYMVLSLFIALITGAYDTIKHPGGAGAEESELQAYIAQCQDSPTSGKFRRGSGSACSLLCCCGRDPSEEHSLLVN

Compound | endolysosomal patch-clamp (LE/LY, HEK293), 10 μM, positive control [1] | endolysosomal patch-clamp (LE/LY, HEK293), 10 μM, positive control [2] | EC50 [3] [nM] | EC50 [4] [nM]
CC1CC(C)(C)N(C(=O)CN2C(=O)c3ccccc3C2=O)c2ccccc21 (stereo not shown) [ML-SA1] | the latter ones were robustly activated by ML-SA1 as a positive control | the latter ones were robustly activated by ML-SA1 as a positive control | – | –
Clc1cccc(Cl)c1C1=NOC2C3CCC(C3)C12 (stereo not shown) [EVP-22, ML2-SA1] | – | – | 1240 ± 120 | 2380 ± 10
